Experimental data reported in ChEMBL document CHEMBL1201862, “PubChem BioAssay data set” (2004).
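In this assay, cells in 96-well plates receive the compound at five concentrations for 48 hours. Endpoints are linearly interpolated between the surrounding concentrations. At the GI50, growth is halved.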 Active and inactive are the calls of the source. No stated cut-off is given here; in the data, active = GI50 up to about 1.1 µM and inactive = higher.

Experiments:
Assay in all cases: growth of human tumour cells (NCI), 48 h
CCRF-CEM = test system: CCRF-CEM
CAKI-1 = test system: CAKI-1
HT-29 = test system: HT-29
HCT-116 = test system: HCT-116
NCI-H460 = test system: NCI-H460
Hs-578T = test system: Hs-578T
OVCAR-4 = test system: OVCAR-4
IGROV-1 = test system: IGROV-1
SK-MEL-2 = test system: SK-MEL-2
DU-145 = test system: DU-145
SK-MEL-5 = test system: SK-MEL-5
A549 = test system: A549
NCI/ADR-RES = test system: NCI/ADR-RES
ACHN = test system: ACHN
K562 = test system: K562
RXF 393 = test system: RXF 393
SK-OV-3 = test system: SK-OV-3
SNB-19 = test system: SNB-19
T47D = test system: T47D

Measured: GI50

COC(=O)C1(O)c2ccccc2N=C2C(=O)c3ccccc3N21 (stereo unspecified) [METHYLISATOID]
inactive: CCRF-CEM > 100 µM | CAKI-1 > 100 µM | HT-29 > 100 µM | HCT-116 > 100 µM | NCI-H460 > 100 µM | Hs-578T > 100 µM | OVCAR-4 > 100 µM | IGROV-1 > 100 µM | SK-MEL-2 > 100 µM | DU-145 > 100 µM | SK-MEL-5 49.8 µM | A549 > 100 µM | NCI/ADR-RES > 100 µM | ACHN > 100 µM | K562 > 100 µM | RXF 393 > 100 µM

CCCCCCCC(=O)OC(COC(=O)Cc1ccccc1)COC(=O)C(C)(C)C (stereo unspecified)
inactive: CCRF-CEM > 100 µM | CAKI-1 > 100 µM | HCT-116 > 100 µM | NCI-H460 > 100 µM | SK-OV-3 > 100 µM | OVCAR-4 > 100 µM | IGROV-1 > 100 µM | SK-MEL-5 74 µM | A549 > 100 µM | SNB-19 > 100 µM | ACHN > 100 µM | K562 52.4 µM

Cc1cnc2c(c1)C(=O)N(c1ccc([N+](=O)[O-])cc1)S2(=O)=O
inactive: CCRF-CEM 82.4 µM | CAKI-1 > 100 µM | HT-29 > 100 µM | HCT-116 > 100 µM | NCI-H460 > 100 µM | T47D > 100 µM | Hs-578T 38.1 µM | SK-OV-3 > 100 µM | OVCAR-4 78 µM | IGROV-1 30.3 µM | SK-MEL-2 5.47 µM | DU-145 > 100 µM | SK-MEL-5 71.3 µM | A549 95.9 µM | SNB-19 56.2 µM | NCI/ADR-RES 74.3 µM | ACHN > 100 µM

COC(=O)C(=O)C(C(=O)C(=O)Nc1nc2ccc(C)cc2s1)c1nc2ccc([N+](=O)[O-])cc2nc1O (stereo unspecified)
inactive: CCRF-CEM > 100 µM | CAKI-1 > 100 µM | HT-29 > 100 µM | HCT-116 > 100 µM | NCI-H460 > 100 µM | T47D > 100 µM | Hs-578T 93.1 µM | SK-OV-3 > 100 µM | OVCAR-4 > 10 µM | IGROV-1 47.9 µM | SK-MEL-2 > 100 µM | SK-MEL-5 > 100 µM | A549 > 100 µM | SNB-19 72.6 µM | NCI/ADR-RES > 100 µM | ACHN > 100 µM | K562 > 100 µM | RXF 393 > 100 µM

CN(C)c1ccc(O[Si](Oc2ccc(N(C)C)cc2)(Oc2ccc(N(C)C)cc2)Oc2ccc(N(C)C)cc2)cc1
inactive: CCRF-CEM 40.8 µM | CAKI-1 > 100 µM | HT-29 > 100 µM | HCT-116 > 100 µM | SK-OV-3 > 100 µM | OVCAR-4 > 100 µM | IGROV-1 > 100 µM | SK-MEL-5 > 100 µM | A549 > 100 µM | SNB-19 > 100 µM | ACHN > 100 µM | K562 > 100 µM

O=c1c2nn[nH]c2nc2n1CC(c1ccccc1)S2 (stereo unspecified)
inactive: CCRF-CEM > 100 µM | CAKI-1 13 µM | HCT-116 > 100 µM | NCI-H460 > 100 µM | T47D > 100 µM | SK-OV-3 > 100 µM | OVCAR-4 > 100 µM | IGROV-1 > 100 µM | DU-145 > 100 µM | SK-MEL-5 > 100 µM | A549 > 100 µM | SNB-19 > 100 µM | NCI/ADR-RES > 100 µM | ACHN > 100 µM | K562 > 100 µM | RXF 393 29 µM

O=C(O)c1ccc(/C=N\N(CCO)C2=NCCN2)cc1
inactive: CCRF-CEM > 100 µM | HT-29 > 100 µM | HCT-116 > 100 µM | NCI-H460 > 100 µM | T47D > 100 µM | Hs-578T > 100 µM | SK-OV-3 > 100 µM | OVCAR-4 > 100 µM | IGROV-1 > 100 µM | SK-MEL-2 > 100 µM | DU-145 > 100 µM | SK-MEL-5 > 100 µM | A549 > 100 µM | SNB-19 > 100 µM | ACHN > 100 µM | K562 > 100 µM | RXF 393 > 100 µM

COC(=O)CCC(NC(=O)C(C)NC(=O)COC1C(O)C(OC(=O)CCNc2c3ccccc3nc3cccc([N+](=O)[O-])c23)OC(OCc2ccccc2)C1NC(C)=O)C(N)=O (stereo unspecified)
inactive: CCRF-CEM > 10 µM | HT-29 2.62 µM | HCT-116 1.64 µM | NCI-H460 > 10 µM | T47D > 10 µM | Hs-578T > 10 µM | SK-OV-3 > 10 µM | IGROV-1 > 10 µM | SK-MEL-2 1.93 µM | DU-145 2.6 µM | SK-MEL-5 1.61 µM | A549 > 10 µM | SNB-19 5.36 µM | ACHN 3.61 µM | K562 1.91 µM | RXF 393 3.05 µM

C/C(=C1/N=C(c2ccccc2)OC1=O)c1ccc(C)cc1
inactive: CCRF-CEM > 100 µM | CAKI-1 > 100 µM | HT-29 > 100 µM | HCT-116 > 100 µM | NCI-H460 > 100 µM | T47D > 100 µM | Hs-578T > 100 µM | SK-OV-3 > 100 µM | OVCAR-4 > 100 µM | IGROV-1 > 100 µM | SK-MEL-2 > 100 µM | DU-145 > 100 µM | SK-MEL-5 > 100 µM | A549 > 100 µM | SNB-19 > 100 µM | ACHN > 100 µM | K562 > 100 µM | RXF 393 > 100 µM

C/C(Cc1ccc2c(c1)OCO2)=N\NC(=O)C(C)Sc1nnc(SC(C)C(=O)N/N=C(\C)Cc2ccc3c(c2)OCO3)s1 (stereo unspecified)
inactive: CCRF-CEM 66.2 µM | CAKI-1 > 100 µM | HT-29 > 100 µM | HCT-116 > 100 µM | NCI-H460 > 100 µM | Hs-578T > 100 µM | SK-OV-3 > 100 µM | OVCAR-4 > 100 µM | IGROV-1 > 100 µM | SK-MEL-2 > 100 µM | DU-145 > 100 µM | SK-MEL-5 69.3 µM | A549 > 100 µM | SNB-19 > 100 µM | NCI/ADR-RES > 100 µM | ACHN > 100 µM | K562 32.1 µM | RXF 393 > 100 µM

CC(C)(C)[Si](C)(C)OCC1OC(n2ccc(=O)[nH]c2=O)C(O[Si](C)(C)C(C)(C)C)/C1=N/O (stereo unspecified)
inactive: CCRF-CEM 3.29 µM | CAKI-1 7.71 µM | HT-29 2.84 µM | HCT-116 2.45 µM | NCI-H460 3.44 µM | T47D 6.22 µM | SK-OV-3 6.41 µM | OVCAR-4 4.25 µM | IGROV-1 4.18 µM | SK-MEL-2 3.21 µM | DU-145 9.29 µM | SK-MEL-5 2.45 µM | A549 3.14 µM | SNB-19 4.49 µM | NCI/ADR-RES 2.49 µM | ACHN 3.2 µM | K562 2.77 µM | RXF 393 8.39 µM

COc1ccc(C(=O)N2CCN(c3ccc4c(c3)OCC(=O)N4)CC2)cc1
inactive: CCRF-CEM > 100 µM | CAKI-1 > 100 µM | HT-29 > 100 µM | HCT-116 > 100 µM | NCI-H460 > 100 µM | T47D > 100 µM | Hs-578T > 100 µM | SK-OV-3 > 100 µM | OVCAR-4 > 100 µM | IGROV-1 > 100 µM | SK-MEL-2 > 100 µM | DU-145 > 100 µM | SK-MEL-5 > 100 µM | A549 > 100 µM | SNB-19 > 100 µM | NCI/ADR-RES > 100 µM | ACHN > 100 µM

COc1nc2ccc(COc3ccc(C(=O)O)cc3)cc2nc1OC
inactive: CCRF-CEM 36.6 µM | CAKI-1 93.3 µM | HT-29 > 100 µM | HCT-116 39.9 µM | NCI-H460 > 100 µM | T47D > 100 µM | SK-OV-3 > 100 µM | OVCAR-4 > 100 µM | IGROV-1 > 100 µM | SK-MEL-2 > 100 µM | DU-145 > 100 µM | SK-MEL-5 > 100 µM | A549 > 100 µM | SNB-19 > 100 µM | NCI/ADR-RES 88.1 µM | ACHN 80.4 µM | K562 67.1 µM

COc1cccc(C2c3cc4c(cc3OC(N3CCOCC3)C2C)OCO4)c1OC (stereo unspecified)
inactive: CCRF-CEM 4.52 µM | CAKI-1 2.02 µM | HT-29 2.96 µM | HCT-116 2.98 µM | NCI-H460 7.71 µM | T47D 3.2 µM | Hs-578T 4.26 µM | IGROV-1 3.46 µM | SK-MEL-2 6.41 µM | DU-145 3.21 µM | SK-MEL-5 9.59 µM | A549 9.98 µM | SNB-19 3.81 µM | NCI/ADR-RES 4.58 µM | ACHN 5.33 µM | K562 2.07 µM

C=C1CC=CC(C)(C)C1C/C=C(\C)C(O)CBr (stereo unspecified)
inactive: CCRF-CEM 47.8 µM | CAKI-1 23.2 µM | HT-29 51.8 µM | HCT-116 18.7 µM | NCI-H460 95.7 µM | Hs-578T > 100 µM | SK-OV-3 > 100 µM | OVCAR-4 76 µM | IGROV-1 19.7 µM | SK-MEL-2 > 100 µM | DU-145 45.4 µM | SK-MEL-5 62.8 µM | A549 74.3 µM | SNB-19 > 100 µM | NCI/ADR-RES 19.2 µM | ACHN 53.7 µM | K562 67.8 µM | RXF 393 26.7 µM

CC(=O)OC1CCC2C3CCc4c(C)ccc(OS(=O)(=O)c5ccccc5)c4C3CCC12C (stereo unspecified)
inactive: CCRF-CEM 19.1 µM | CAKI-1 24 µM | HT-29 13.1 µM | HCT-116 3.37 µM | NCI-H460 6.61 µM | SK-OV-3 34.2 µM | OVCAR-4 21.8 µM | IGROV-1 38.7 µM | SK-MEL-2 30.8 µM | DU-145 33.1 µM | SK-MEL-5 3.74 µM | SNB-19 47.1 µM | ACHN 35.9 µM | K562 5.69 µM | RXF 393 31.1 µM
